Experimental data published in patent US10745401B2, “Condensed lactam derivative” (Sumitomo Dainippon Pharma Co., Ltd., priority 2018, dated 2020).

Legend:
human 5-HT1A receptor [1] = target: T1, human 5-HT1A receptor (Homo sapiens (Human), UniProt P08908); experiment: Test 1: binding activity for human 5-HT1A receptor ([3H]8-OH-DPAT, CHO cell membrane fraction)
Procedure: (§1) Test 1: Evaluation of Binding Activity for Human 5-HT1A Receptor, Human 5-HT2A Receptor, and Human D2 Receptor
(§2) Binding affinity of the present compound for human 5-HT1A receptor, human 5-HT2A receptor, and human D2 receptor was measured by the following procedures.
(§3) Each mixture was incubated at room temperature for 60 minutes. Then, the mixture was added quickly on a glassfiber filter plate (Multiscreen FB, Millipore, Inc.) coated with 0.3% aqueous polyethylenimine, and vacuum-filtered. Radioactivity remaining on the filter was measured with a liquid scintillation counter (PerkinElmer, Inc.). Binding inhibition rate was calculated from the following formula.
(§4) IC50 value was calculated by Hill analysis (Physiology, 1910, 40, 190-200). Ki of each compound was calculated from the following formula. Binding inhibition constant (Ki)=IC50/(1+S/Kd) wherein S is concentration of ligand; Kd is a binding dissociation constant of ligand to membrane, which is calculated from a saturated binding experiment conducted with the same cell membrane. A small Ki value means strong binding ability to a receptor.

human D2 receptor = human D2 receptor (Homo sapiens (Human), UniProt P14416); experiment: Test 1: binding activity for human D2 receptor ([3H]Spiperone, CHO cell membrane fraction); details: human D2 receptor, [3H]Spiperone
human D2 receptor, sequence (P14416 whole entry): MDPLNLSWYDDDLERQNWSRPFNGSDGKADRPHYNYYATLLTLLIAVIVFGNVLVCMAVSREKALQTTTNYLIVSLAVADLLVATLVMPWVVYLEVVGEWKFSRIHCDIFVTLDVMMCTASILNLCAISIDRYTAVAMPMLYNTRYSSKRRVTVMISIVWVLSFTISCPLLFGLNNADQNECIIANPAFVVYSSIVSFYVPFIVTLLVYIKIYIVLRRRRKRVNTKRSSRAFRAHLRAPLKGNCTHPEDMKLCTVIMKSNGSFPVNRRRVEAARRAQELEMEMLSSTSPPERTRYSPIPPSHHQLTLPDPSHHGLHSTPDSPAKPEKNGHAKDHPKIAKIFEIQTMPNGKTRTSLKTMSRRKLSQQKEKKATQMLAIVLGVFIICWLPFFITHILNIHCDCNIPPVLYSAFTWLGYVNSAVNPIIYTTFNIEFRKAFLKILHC
Procedure: as §1, §2, §3
as §4, with “Ki” for “IC50 value was calculated by Hill analysis (Physiology, 1910, 40, 190-200). Ki”

human 5-HT1A receptor [2] = target: T1, human 5-HT1A receptor; experiment: Test 2: agonist activity for human 5-HT1A receptor ([35S]GTPγS binding); type: biochemical; details: for EC50: [35S]GTPγS binding, concentration at which half the activity of Emax was obtained; for Emax at 10 µM: agonist activity in the presence of 10 μM of compound, relative to 100 μmol/L 5-HT
Procedure: Test 2: Evaluation of Agonist Activity for Human 5-HT1A Receptor
CHO cell membrane fraction in which human 5-HT1A receptor was expressed as used in Test 1 was purchased. To a buffer containing guanosine diphosphate were added a test compound dissolved in DMSO, each receptor membrane sample diluted with buffer, and [^35S] Guanosine 5′-O-[gamma-thio]triphosphate (GTPγS). The mixture was incubated at room temperature for 60 minutes. Then, the mixture was added quickly on a glassfiber filter plate (Multiscreen FB, Millipore, Inc.), and vacuum-filtered. Radioactivity remaining on the […] was measured with a liquid scintillation counter. Agonist activity was calculated from the following formula.

[3] = Test 4: metabolic stability test in human hepatic microsome; type: in vitro ADME; details: 0.1 mg/mL microsome, 0.1 μmol/L compound, 37° C., 30 minutes
Procedure: Test 4: Metabolic Stability Test in Human Hepatic Microsome
The stability of the present compound in human hepatic microsome metabolism was evaluated as mentioned below. Human hepatic microsome was obtained from Xenontech. Human hepatic microsome, NADPH, and each test compound were mixed in 25 mmol/L phosphate buffer solution (pH 7.4) to reach the following concentrations as shown below, and the mixture was incubated at 37° C. for 30 minutes. • Human hepatic microsome: 0.1 mg/mL • NAPDH: 3.2 mmol/L • Test compound: 0.1 μmol/L
The residual ratio of the test compound in each sample after 30 minutes was measured by LC-MS, and the metabolic stability in human hepatic microsome was calculated from the following formula. Metabolic stability in human hepatic microsome (mL/min/mg protein)=−LN (residual ratio)/30/0.1

hERG channel = hERG channel (Homo sapiens (Human), UniProt Q12809); experiment: Test 6-1: inhibitory activity for hERG channel (auto patch clamp, Qpatch); type: cell-based; details: whole cell auto patch clamp, hERG-CHO cells; read-out: hERG inhibition IC50
hERG channel, sequence (Q12809 whole entry): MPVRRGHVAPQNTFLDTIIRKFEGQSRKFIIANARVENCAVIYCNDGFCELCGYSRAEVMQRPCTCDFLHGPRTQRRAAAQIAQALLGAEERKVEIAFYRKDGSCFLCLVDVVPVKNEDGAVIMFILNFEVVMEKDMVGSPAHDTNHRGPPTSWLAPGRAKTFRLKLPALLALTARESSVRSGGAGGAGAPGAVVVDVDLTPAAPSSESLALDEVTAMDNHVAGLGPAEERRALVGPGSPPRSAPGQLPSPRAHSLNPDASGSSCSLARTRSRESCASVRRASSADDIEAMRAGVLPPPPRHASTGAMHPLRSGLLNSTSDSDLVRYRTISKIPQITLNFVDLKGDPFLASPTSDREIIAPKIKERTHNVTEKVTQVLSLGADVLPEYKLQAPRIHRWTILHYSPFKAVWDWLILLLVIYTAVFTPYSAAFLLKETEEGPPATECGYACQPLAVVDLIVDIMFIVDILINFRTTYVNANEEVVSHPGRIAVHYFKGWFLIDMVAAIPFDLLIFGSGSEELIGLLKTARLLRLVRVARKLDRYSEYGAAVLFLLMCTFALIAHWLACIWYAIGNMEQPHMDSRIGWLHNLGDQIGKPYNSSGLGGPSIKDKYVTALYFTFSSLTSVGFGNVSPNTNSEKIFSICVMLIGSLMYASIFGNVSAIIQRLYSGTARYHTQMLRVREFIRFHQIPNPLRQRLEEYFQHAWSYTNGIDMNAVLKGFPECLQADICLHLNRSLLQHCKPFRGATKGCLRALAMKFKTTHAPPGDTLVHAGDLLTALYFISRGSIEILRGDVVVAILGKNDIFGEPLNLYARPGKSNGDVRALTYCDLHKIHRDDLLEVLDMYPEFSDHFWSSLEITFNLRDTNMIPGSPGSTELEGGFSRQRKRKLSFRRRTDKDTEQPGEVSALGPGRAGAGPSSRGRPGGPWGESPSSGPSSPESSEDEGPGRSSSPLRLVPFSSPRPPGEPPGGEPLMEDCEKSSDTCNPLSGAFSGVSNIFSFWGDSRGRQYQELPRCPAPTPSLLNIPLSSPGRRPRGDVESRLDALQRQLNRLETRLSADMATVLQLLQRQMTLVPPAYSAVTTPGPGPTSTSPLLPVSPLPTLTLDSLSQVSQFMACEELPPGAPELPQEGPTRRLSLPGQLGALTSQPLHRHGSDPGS
Procedure: Test 6-1: Evaluation of Inhibitory Activity for hERG Channel
Inhibitory activity of the present compound for hERG channel was measured by whole cell patch clamp method with an auto patch clamp system using CHO cells in which hERG channel involved in human rapidly activating delayed rectifier potassium current (IKr) was forcibly expressed.
hERG-CHO cells purchased from ChanTest Cop. were cultured in a CO2 incubator at 37° C., and dissociated from a flask with trypsin shortly before the measurement of hERG current, to prepare a cell suspension.
Extracellular fluid: 2 mmol/L CaCl2, 1 mmol/L MgCl2, 10 mmol/L HEPES, 4 mmol/L KCl, 145 mmol/L NaCl, 10 mmol/L Glucose
Intracellular fluid: 5.4 mmol/L CaCl2, 1.8 mmol/L MgCl2, 10 mmol/L HEPES, 31 mmol/L KOH, 10 mmol/L EGTA, 120 mmol/L KCl, 4 mmol/L Na2-ATP
Test compound solution: Test compound was dissolved in DMSO to reach the concentration of 2 mmol/L or 20 mmol/L, in order to prepare a test compound solution. […] (Measurement of Current Value and Data Analysis)
The cell suspension, the extracellular fluid, the intracellular fluid, and the measurement plate were set in the auto patch clamp system, and hERG current was measured by whole cell patch clamp method. […] Each pulse interval was 15 seconds. The data analysis was carried out with Qpatch Assay Software (Biolin Scientific). The test was carried out by applying incrementally 4 concentrations of each test compound, and the average of the maximum peak tail currents which were obtained from the last 3 stimulations in each concentration was determined as the evaluated data. Based on the current inhibition rate for a pre-applied current at each concentration of each test compound, IC50 value was calculated by Hill equation with the software.

T1 sequence (P08908 whole entry): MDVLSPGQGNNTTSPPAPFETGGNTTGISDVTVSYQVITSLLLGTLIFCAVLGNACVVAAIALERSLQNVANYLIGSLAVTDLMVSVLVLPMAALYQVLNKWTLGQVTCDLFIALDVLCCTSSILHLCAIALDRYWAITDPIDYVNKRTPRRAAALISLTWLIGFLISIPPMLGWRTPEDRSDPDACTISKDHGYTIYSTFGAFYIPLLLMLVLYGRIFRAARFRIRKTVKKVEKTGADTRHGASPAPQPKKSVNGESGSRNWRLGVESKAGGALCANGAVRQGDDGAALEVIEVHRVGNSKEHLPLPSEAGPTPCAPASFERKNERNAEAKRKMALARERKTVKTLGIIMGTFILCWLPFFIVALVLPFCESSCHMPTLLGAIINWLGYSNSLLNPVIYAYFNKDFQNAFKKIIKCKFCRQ

Structure (SMILES) | Ki (human 5-HT1A receptor [1]) [nM] | Ki (human D2 receptor) [nM] | EC50 (human 5-HT1A receptor [2]) [nM] | Emax at 10 µM (human 5-HT1A receptor [2]) [%] | Metabolic stability in human hepatic microsome [3] [mL/min/mg protein] | IC50 (hERG channel) [nM]
O=C1c2ncccc2CCN1CCN1CCC(c2noc3ccc(F)cc23)CC1 [Example 5] | 5.78 | 7830 | 91.6 | 60 | <0.01 | 2400
O=c1c2cnccc2ccn1CCN1CCN(c2nsc3ccccc23)CC1 [Example 11] | 2.95 | 316 |  |  | 0.245 | 2600
O=c1c2ncccc2ccn1CCN1CCC(c2noc3cc(F)ccc23)CC1 [Example 12] | 7.03 | 311 | 96 | 32 | 0.02 | 300
COc1cc2c(cn1)C(=O)N(CCN1CCC(c3noc4ccccc34)CC1)CC2 [Example 14] | 0.15 | 136 | 2.87 | 42 | <0.01 | 800
CC1CN(CCN2CCC(c3noc4ccccc34)CC2)C(=O)c2ncccc21 (centres unmarked) [Example 15] | 0.51 | 1560 | 7.32 | 57 | 0.055 | 1600
Cn1cnc2c1CCN(CCN1CCC(c3noc4ccccc34)CC1)C2=O [Example 16] | 18.6 | 34000 | 300 | 40 | <0.01 | > 10000
COc1cc2c(cn1)CCN(CCN1CCN(c3nsc4ccccc34)CC1)C2=O [Example 19] | 0.75 | 690 | 6.7 | 68 | 0.378 | 5200
COc1cc2c(cn1)C(=O)N(CCN1CCN(c3noc4ccccc34)CC1)CC2 [Example 20] | 0.77 | 1890 | 4.72 | 52 | 0.091 | 5400
Cc1cc2c(cn1)C(=O)N(CCN1CCN(c3noc4ccccc34)CC1)CC21CC1 [Example 21] | 8.62 | 2120 | 18 | 59 | 0.323 | 8000
O=C1c2oc(C3CC3)nc2CCN1CCN1CCN(c2nsc3ccccc23)CC1 [Example 67] | 1.17 |  | 3.19 | 65 | 0.269 | 1600
CC(C)c1nc2c(o1)C(=O)N(CCN1CCC(c3noc4ccccc34)CC1)CC2 [Example 164] | 11.7 |  | 69.5 | 48 | 0.097 | 1000
CC(C)c1ncc2c(=O)n(CCN3CCN(c4nsc5ccccc45)CC3)ccc2n1 [Example 181] | 48.6 | 3690 | 79 | 53 | 0.791 | 
O=c1c2cnc(C3CC3)nc2ccn1CCN1CCN(c2nsc3ccccc23)CC1 [Example 182] | 10.9 | 1400 | 7.85 | 40 | 0.726 | 
O=C1c2cn[nH]c2CCN1CCN1CCC(c2noc3ccccc23)CC1 [Example 189, 5-{2-[4-(1,2-Benzoisoxazol-3-yl)piperidin-1-yl]ethyl}-1,5,6,7-tetrahydro-4H-pyrazolo[4,3-c]pyridin-4-one] | 98.4 |  | 690 | 49 | <0.05 | 1800
